# Measured values as given in US20050245399A1, “Pyrazole derivatives as herbicidal compositions containing them” (ISHIHARA SANGYO KAISHA, LTD., priority 2004, published 2005).
# Key:
# Type in all cases: in vivo
# [1] = tested on: prickly sida (Sida spinosa L.): SEDSP; assay: Test Example 1 pre-emergence herbicidal activity, SIDSP; conditions: visually observed 20th to 23rd day after application
# Outline: (§1)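 Percent growth control, rated visually 20–23 d after a pre-emergence spray applied 1 d post-sowing; compound formulated as WP or EC in 500 L/ha water at a predetermined a.i. amount.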
# [2] = tested on: crabgrass (Digitaria sanguinalis L.): DIGSA; assay: Test Example 1 pre-emergence herbicidal activity, DIGSA; conditions: visually observed 20th to 23rd day after application
# Outline: as §1
# [3] = tested on: barnyardgrass (Echinochloa crus-galli L.), ECHCG; assay: Test Example 2 post-emergence (foliage treatment) herbicidal activity, ECHCG; conditions: 63 g a.i./ha
# Outline: (§2)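 Each species was evaluated for growth suppression by eye, 0% matching untreated and 100% meaning death, some 20 to 23 days after a single post-emergence foliar treatment applied in 500 L/ha of water carrying 0.1% (v/v) agricultural spreader.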
# [4] = tested on: wheat (Triticum aestivum L.): TRZAX; assay: Test Example 1 pre-emergence herbicidal activity, TRZAX; conditions: visually observed 20th to 23rd day after application
# Outline: as §1
# [5] = tested on: redroot pigweed (Amaranthus retroflexus L.): AMARE; assay: Test Example 1 pre-emergence herbicidal activity, AMARE; conditions: visually observed 20th to 23rd day after application
# Outline: as §1
# [6] = tested on: rice (Oryza sativa L.), ORYSA; assay: Test Example 2 post-emergence (foliage treatment) herbicidal activity, ORYSA; conditions: 63 g a.i./ha
# Outline: as §2
# [7] = tested on: crabgrass (Digitaria sanguinalis L.), DIGSA; assay: Test Example 2 post-emergence (foliage treatment) herbicidal activity, DIGSA; conditions: 63 g a.i./ha
# Outline: as §2
# [8] = tested on: velvetleaf (Abutilon theophrasti), ABUTH; assay: Test Example 2 post-emergence (foliage treatment) herbicidal activity, ABUTH; conditions: 63 g a.i./ha
# Outline: as §2
# [9] = tested on: velvetleaf (Abutilon theophrasti): ABUTH; assay: Test Example 1 pre-emergence herbicidal activity, ABUTH; conditions: visually observed 20th to 23rd day after application
# Outline: as §1
# [10] = tested on: soybean (Glycine max Merr.): GLXMA; assay: Test Example 1 pre-emergence herbicidal activity, GLXMA; conditions: visually observed 20th to 23rd day after application
# Outline: as §1
# [11] = tested on: corn (Zea mays L.), ZEAMX; assay: Test Example 2 post-emergence (foliage treatment) herbicidal activity, ZEAMX; conditions: 63 g a.i./ha
# Outline: as §2
# [12] = tested on: redroot pigweed (Amaranthus retroflexus L.), AMARE; assay: Test Example 2 post-emergence (foliage treatment) herbicidal activity, AMARE; conditions: 63 g a.i./ha
# From the text: (§3) Upland field soil was put into a 1/170,000 ha pot, and seeds of various plants were sown. Then, when the plants reached predetermined leaf stages {1. barnyardgrass (Echinochloa crus-galli L.), ECHCG: 1.1-2.1 leaf stage, 2. crabgrass (Digitaria sanguinalis L.), DIGSA: 1.0-2.0 leaf stage, 3. green foxtail (Setaria viridis L.), SETVI: 1.0-2.2 leaf stage, 4. redroot pigweed (Amaranthus retroflexus L.), AMARE: 0.1-1.5 leaf stage, 5. prickly sida (Sida spinosa L.), SIDSP: 0.1-0.6 leaf stage, 6. velvetleaf (Abutilon theophrasti), ABUTH: 0.1-0.6 leaf stage, 7. common cocklebur (Xanthium strumarium L.), XANST: 0.1 leaf stage, 8. rice (Oryza sativa L.), ORYSA; 1.0-2 leaf stage, 9. wheat (Triticum aestivum L.), TRZAX: 2.3-3.5 leaf stage, 10. corn (Zea mays L.), ZEAMXN 2.1-2.6 leaf stage, 11. soybean (Glycine max Merr.), GLXMA: primary leaf stage}, a wettable powder or emulsifiable concentrate having the compound of the present invention formulated in accordance with a usual formulation method, was weighed so that the active ingredient would be a predetermined amount, and diluted with water in an amount of 500 L/ha. To the diluted solution, 0.1% (v/v) of an agricultural spreader was added. The herbicide adjusted was applied by a small size sprayer for foliage treatment. On the 20th to 23rd day after the application of the herbicide, the growth of the respective plants was visually observed, and the herbicidal effects were evaluated by growth controlling degrees (%) ranging from 0 (equivalent to the untreated control) to 100 (complete kill), whereby the results shown in Table 5, were obtained. Compound Nos. in Table 5 correspond to Compound Nos. in Table 1 and 2 given hereinbefore.
# [13] = tested on: soybean (Glycine max Merr.), GLXMA; assay: Test Example 2 post-emergence (foliage treatment) herbicidal activity, GLXMA; conditions: 63 g a.i./ha
# Outline: as §2
# [14] = tested on: green foxtail (Setaria viridis L.): SETVI; assay: Test Example 1 pre-emergence herbicidal activity, SETVI; conditions: visually observed 20th to 23rd day after application
# Outline: as §1
# [15] = tested on: wheat (Triticum aestivum L.), TRZAX; assay: Test Example 2 post-emergence (foliage treatment) herbicidal activity, TRZAX; conditions: 63 g a.i./ha
# Outline: as §2
# [16] = tested on: barnyardgrass (Echinochloa crus-galli L.): ECHCG; assay: Test Example 1 pre-emergence herbicidal activity, ECHCG; conditions: visually observed 20th to 23rd day after application
# Outline: as §1
# [17] = tested on: corn (Zea mays L.): ZEAMX; assay: Test Example 1 pre-emergence herbicidal activity, ZEAMX; conditions: visually observed 20th to 23rd day after application
# Outline: as §1
# [18] = tested on: rice (Oryza sativa L.): ORYSA; assay: Test Example 1 pre-emergence herbicidal activity, ORYSA; conditions: visually observed 20th to 23rd day after application
# Outline: as §1
# [19] = tested on: prickly sida (Sida spinosa L.), SIDSP; assay: Test Example 2 post-emergence (foliage treatment) herbicidal activity, SIDSP; conditions: 63 g a.i./ha
# From the text: as §3
# [20] = tested on: green foxtail (Setaria viridis L.), SETVI; assay: Test Example 2 post-emergence (foliage treatment) herbicidal activity, SETVI; conditions: 63 g a.i./ha
# Outline: as §2
SMILES,Pre-emergence Herbicidal Activity SIDSP (growth controlling degree) ([1]; Rate 63 g a.i./ha),Pre-emergence Herbicidal Activity DIGSP (growth controlling degree) ([2]; Rate 63 g a.i./ha),"growth controlling degree, ECHCO [3]",Pre-emergence Herbicidal Activity TRZAX (growth controlling degree) ([4]; Rate 63 g a.i./ha),Pre-emergence Herbicidal Activity AMARE (growth controlling degree) ([5]; Rate 63 g a.i./ha),"growth controlling degree, ORYSA [6]","growth controlling degree, DIGSP [7]","growth controlling degree, ABUTH [8]",Pre-emergence Herbicidal Activity ABUTH (growth controlling degree) ([9]; Rate 63 g a.i./ha),Pre-emergence Herbicidal Activity GLXMA (growth controlling degree) ([10]; Rate 63 g a.i./ha),"growth controlling degree, ZEAMX [11]","growth controlling degree, AMARE [12]","growth controlling degree, GLXMA [13]",Pre-emergence Herbicidal Activity SETVI (growth controlling degree) ([14]; Rate 63 g a.i./ha),"growth controlling degree, TRZAX [15]",Pre-emergence Herbicidal Activity ECHCG (growth controlling degree) ([16]; Rate 63 g a.i./ha),Pre-emergence Herbicidal Activity ZEAMX (growth controlling degree) ([17]; Rate 63 g a.i./ha),Pre-emergence Herbicidal Activity ORYSA (growth controlling degree) ([18]; Rate 63 g a.i./ha),"growth controlling degree, SIDSP [19]","growth controlling degree, SETVI [20]",other results
COc1c(Cl)cc(F)c(-c2nn(C)c(OC(F)F)c2Cl)c1NC(=O)CCc1ccccc1C [Compound 1-37],95%,100%,98%,30%,100%,90%,80%,100%,40%,0%,70%,100%,98%,80%,50%,60%,0%,20%,100%,,
COc1c(Cl)cc(F)c(-c2nn(C)c(OC(F)F)c2Cl)c1NC(=O)C=Cc1cccc(C)c1 [Compound 1-254],60%,60%,80%,0%,100%,90%,60%,100%,50%,0%,30%,100%,70%,50%,30%,60%,0%,20%,100%,95%,
CCOC(=O)C(C)N(C=O)c1c(OC)c(Cl)cc(F)c1-c1nn(C)c(OC(F)F)c1Cl (stereo not drawn) [Compound 1-42],,,30%,,,20%,30%,95%,,,0%,100%,10%,,20%,,,,70%,50%,Pre-emergence Herbicidal Activity SIDSP (growth controlling degree) ([1]; Rate 125 g a.i./ha): 0%; Pre-emergence Herbicidal Activity DIGSP (growth controlling degree) ([2]; Rate 125 g a.i./ha): 0%; Pre-emergence Herbicidal Activity TRZAX (growth controlling degree) ([4]; Rate 125 g a.i./ha): 0%; Pre-emergence Herbicidal Activity AMARE (growth controlling degree) ([5]; Rate 125 g a.i./ha): 0%; Pre-emergence Herbicidal Activity ABUTH (growth controlling degree) ([9]; Rate 125 g a.i./ha): 0%; Pre-emergence Herbicidal Activity GLXMA (growth controlling degree) ([10]; Rate 125 g a.i./ha): 0%; Pre-emergence Herbicidal Activity SETVI (growth controlling degree) ([14]; Rate 125 g a.i./ha): 0%; Pre-emergence Herbicidal Activity ECHCG (growth controlling degree) ([16]; Rate 125 g a.i./ha): 0%; Pre-emergence Herbicidal Activity ZEAMX (growth controlling degree) ([17]; Rate 125 g a.i./ha): 0%; Pre-emergence Herbicidal Activity ORYSA (growth controlling degree) ([18]; Rate 125 g a.i./ha): 0%
COc1c(Cl)cc(F)c(-c2nn(C)c(OC(F)F)c2Cl)c1NC(=O)OC(C)C [Compound 1-75],60%,100%,100%,30%,100%,80%,50%,100%,100%,0%,50%,100%,60%,100%,50%,70%,10%,30%,100%,100%,
COc1c(Cl)cc(F)c(-c2nn(C)c(OC(F)F)c2Cl)c1NCCc1cccc(C)c1 [Compound 1-50],100%,100%,100%,30%,100%,95%,90%,100%,100%,10%,80%,100%,95%,100%,70%,70%,10%,20%,100%,,
COc1c(Cl)cc(F)c(-c2nn(C)c(OC(F)F)c2Cl)c1NC(=O)c1cccc(C)c1 [Compound 1-260],70%,100%,100%,30%,100%,60%,95%,100%,40%,0%,60%,100%,70%,100%,40%,60%,10%,50%,,100%,
